The source of these data is ChEMBL document CHEMBL4177563, “The medicinal chemistry of Chikungunya virus” (Bioorg Med Chem, 2017).

For series [1], the system named is Chikungunya virus. In words: Antiviral activity against Chikungunya virus 899 infected in African green monkey Vero A cells assessed as reduction in viral infectious progeny by end-point titration assay. The series is classed as functional, organism-based. To be noted: Chikungunya virus, 899, Vero.
Series [2] has as its system Chikungunya virus. Nature of the series: Antiviral activity against Chikungunya virus 899 infected in African green monkey Vero A cells by real-time qRT-PCR analysis. The series is classed as functional, organism-based. To be noted: Chikungunya virus, 899, Vero.
A short description of series [3]: Cytotoxicity against African green monkey Vero A cells assessed as reduction in cell viability measured on day 5 post infection by MTS/PMS based microscopic analysis. Conditions: chlorocebus sabaeus.
In series [4] the test system is Chikungunya virus. In words: Antiviral activity against Chikungunya virus 899 infected in African green monkey Vero A cells assessed as inhibition of virus-induced cytopathogenic effect measured on day 5 post infection by MTS/PMS based microscopic analysis. The format is functional, organism-based. Conditions: Chikungunya virus, 899, Vero, 120 h. On the technique in general: Protection from cytopathic effect is a common read-out in antiviral testing.

Series [5] concerns Chikungunya virus. Nature of the series: Antiviral activity against Chikungunya virus infected in African green monkey Vero cells after 72 hrs by MTT dye-based assay. The series is classed as functional, organism-based. In general terms: Tetrazolium assays rely on reduction of a dye to a coloured formazan, in cell work by metabolically active cells.
A short description of series [6]: Binding affinity to Chikungunya virus […].
The subject of series [7] is Chikungunya virus. In words: Antiviral activity against Chikungunya virus MY/065/08/FN295485 infected in African green monkey Vero cells assessed as reduction in virus yield after 48 hrs by titration assay. The series is classed as functional, organism-based. To be noted: MY/065/08/FN295485, Vero.
Series [8] is described as follows: Selectivity index, ratio of CC50 for African green monkey Vero cells to IC50 for Chikungunya virus MY/065/08/FN295485. The series is classed as toxicity. Conditions: read-out: Ratio IC50.
A short description of series [9]: Cytotoxicity against BHK cells assessed as reduction in cell viability after 48 hrs in presence of ATP by Celltiter-Glo luminescent assay. The series is classed as cell-based, Mesocricetus auratus. Conditions: hamster.
A short description of series [10]: Selectivity index, ratio of CC50 for BHK cells to IC50 for Chikungunya virus LR2006 OPY1. The format is toxicity. To be noted: hamster, read-out: Ratio CC50/IC50.
Series [11] concerns Chikungunya virus. In words: Antiviral activity against Chikungunya virus LR2006 OPY1 infected in BHK cells measured at 14 hrs post infection by luciferase reporter gene assay. The format is functional, organism-based. Background: In a reporter assay the amount or activity of a reporter protein is the signal.
In series [12] the test system is Vero. Nature of the series: Cytotoxicity against African green monkey Vero cells assessed as reduction in cell viability measured on day 5 post dose by MTS/PMS based microscopic analysis. To be noted: chlorocebus sabaeus.
The test system of series [13] is Chikungunya virus. In words: Antiviral activity against Chikungunya virus 899 infected in African green monkey Vero cells assessed as inhibition of virus-induced cytopathogenic effect measured on day 5 post infection by MTS/PMS based microscopic analysis. The series is classed as functional, organism-based. Conditions: Chikungunya virus, 899, Vero, 120 h.
The subject of series [14] is Chikungunya virus. Nature of the series: Antiviral activity against Chikungunya virus infected in African green monkey Vero cells. The series is classed as functional, organism-based.

Each structure is given as a SMILES string. Converted amounts (≈) assume the structure as drawn.

As to `CCCCCCCC(=O)O[C@H]1/C(=C/C(=O)OC)C[C@H]2C[C@H](CC(=O)OC)OC(=O)CCOc3ccc(-c4c(OC)cccc4OC)cc3C(=O)OCC(C)(C)[C@]1(O)O2`, the EC50 (as a rule, the concentration that produces a half-maximal response) in series [1] is 2 µM; in [2] it was 2.1 µM; in series [4] it was 4 µM. The half-maximal cytotoxic concentration (CC50) (commonly the concentration giving 50% cytotoxicity) at 5 days in series [3] was > 50 µM.

For `O=c1cc(-c2ccc(O)cc2)oc2cc(O)cc(O)c12` [APIGENIN], the IC50 – broadly, the midpoint of a concentration-inhibition curve – in series [5] is 22.5 to 127 µM.

In the case of `O=C(O)[C@H]1O[C@@H](Oc2cc3oc(-c4ccccc4)cc(=O)c3c(O)c2O)[C@H](O)[C@@H](O)[C@@H]1O` [BAICALIN], in [6], affinity was put at a Ki of 0.064 µM. For the same compound, the IC50 in [7] was determined as 7 µM. Further, the selectivity ratio in series [8] worked out at 188.

Take `CN(C)CCCN1c2ccccc2Sc2ccc(Cl)cc21` [CHLORPROMAZINE]: the CC50 at 48 h in series [9] came out at 67.3 µM. Besides, the selectivity ratio in series [10] was found to be 4.5. The compound also registered an IC50 in series [11] of 15.7 µM.

In series [5], `O=c1cc(-c2ccccc2)oc2cc(O)cc(O)c12` [CHRYSIN] came in with an IC50 of 22.5 to 127 µM.

Turning to `CCN(CC)C(C)CN1c2ccccc2Sc2ccccc21` (configuration not stated) [ETHOPROPAZINE], the CC50 at 48 h in [9] came out at 167 µM. In series [10], the selectivity ratio came to 10.4. Further, in series [11], the IC50 was determined as 16 µM.

Turning to `O=c1c(O)c(-c2ccc(O)c(O)c2)oc2cc(O)ccc12` [FISETIN], the IC50 in series [7] was found to be 29.5 µM. Moreover, in series [8], the selectivity ratio was 23.

Consider `Cn1c2ccccc2c2c3c(c4c5ccccc5n(CCC#N)c4c21)CNC3=O` [GO-6976], for which the CC50 in series [12] came to 6 µM. Further, the EC50 in series [13] was > 6 µM.

In the case of `O=c1cc(-c2ccc(O)c(O)c2)oc2cc(O)cc(O)c12` [LUTEOLIN], the half-inhibitory concentration (IC50) in series [5] was in the range of 22.5 to 127 µM.

Take `CN1CCC(CN2c3ccccc3Sc3ccccc32)C1` (configuration not stated) [METHDILAZINE]: the CC50 at 48 h in [9] was 63.8 µM. In [10], the selectivity ratio was determined as 5.6. The compound further showed an IC50 in series [11] of 11.3 µM.

Regarding `O=C1C[C@@H](c2ccc(O)cc2)Oc2cc(O)cc(O)c21` [NARINGENIN], in [6], the inhibition constant (Ki) (commonly a dissociation constant, usually derived from enzyme kinetics or from competition with a known ligand) turned out to be 0.685 µM.

In the case of `OCCN1CCN(CCCN2c3ccccc3Sc3ccc(Cl)cc32)CC1` [PERPHENAZINE], the CC50 at 48 h in series [9] is 155 µM. Besides, the selectivity ratio in series [10] worked out at 6.2. Also, half-maximal inhibition in [11] (IC50) was put at 25.1 µM.

`O=c1c(O)c(-c2ccc(O)c(O)c2)oc2cc(O)c(O)c(O)c12` [QUERCETAGETIN] had a Ki in series [6] of 0.489 µM. Further, the half-inhibitory concentration (IC50) in series [7] was found to be 25300 µM. Also, the selectivity ratio in series [8] turned out to be 16.3.

In series [14], `C=C[C@H]1CN2CC[C@H]1C[C@H]2[C@H](O)c1ccnc2ccc(OC)cc12` [QUININE] had an IC50 of 0.1 µg/mL (≈ 0.308 µM).

`COc1cc(C2Oc3cc([C@H]4Oc5cc(O)cc(O)c5C(=O)[C@@H]4O)ccc3OC2CO)ccc1O` (some centres not stated) [SILIBININ]: in series [5], the IC50 was in the range of 22.5 to 127 µM.

On to `CN1CCN(c2nc(C3=C(c4c[nH]c5ccccc45)C(=O)NC3=O)c3ccccc3n2)CC1` [SOTRASTAURIN], for which the CC50 in series [12] was found to be 66 µM. Besides, the EC50 in [13] was > 66 µM.

Consider `CCSc1ccc2c(c1)N(CCCN1CCN(C)CC1)c1ccccc1S2` [THIETHYLPERAZINE], for which the CC50 at 48 h in series [9] came out at 83.1 µM. Further, in series [10], the selectivity ratio was 5.5. In series [11], this compound returned an IC50 of 15 µM.
